{"source": "patent US12109283B2", "about": "“Safe and ecofriendly persistent sanitizing gel for topical application” (GALAXY SURFACTANTS LTD., priority 2021, dated 2024)", "experiment": "UV absorbing power (E1% 1 cm)", "format": "physicochemical", "conditions": "at the λmax printed in Table 1 (290 nm or 305 nm)", "from_the_text": "Fatty acids of Tung seed oil have good UV absorbing power as is evident from its conjugated system and from its E1% 1 cm of 1600 at 270 nm and 360 at 290 nm. These UV absorbing fatty acids can not only protect the ingredients of the formulations but also the skin and hair from the ravages of solar radiation when the formulations are applied. […] UV B radiation of solar spectrum is the most damaging since it causes skin cancer.\nBoth homosalate and Octyl salicylates are popular sunscreen molecules all over the world.", "data": [{"smiles": "CC1CC(OC(=O)c2ccccc2O)CC(C)(C)C1", "note": "(stereo not shown) [Homosalate (118-56-9), Homosalate]", "values": [{"measurement": "E1 %", "value": 180}]}]}
